Results: patent US4254278A, “1-Descarboxy-1-ketoester (ketoacid)-prostaglandins” (American Cyanamid Company, priority 1979, dated 1981)

Assays:
Assay type in all cases: in vivo, guinea pigs
[1] = tested on: bronchospasms elicited by acetylcholine; assay: Bronchodilator activity against acetylcholine-induced bronchospasm (Konzett procedure); conditions: guinea pig; acetylcholine spasmogen; three logarithmic cumulative intravenous doses
Description: (§1) The compounds of this invention are useful as bronchodilators for the treatment of asthma and chronic bronchitis. Bronchodilator activity is determined in guinea pigs against bronchospasms elicited by intravenous injections of 5-hydroxytryptamine, histamine or acetylcholine by the Konzett procedure. [See J. Lulling, P. Lievens, F. El Sayed and J. Prignot, Arzneimittel-Forschung, 18, 955 (1968).]
(§2) In Table which follows bronchodilator activity for representative compounds of this invention against one or more of three spasmogenic agents is expressed as an ED50 determined from the results obtained with three logarithmic cummulative intravenous doses. In this assay, these compounds of this invention provide an effect of longer duration than does natural 1-PGE1 or 1-PGE2.

[2] = tested on: bronchospasms elicited by 5-hydroxytryptamine; assay: Bronchodilator activity against 5-hydroxytryptamine-induced bronchospasm (Konzett procedure); conditions: guinea pig; 5-hydroxytryptamine spasmogen; three logarithmic cumulative intravenous doses
Description: as §1, §2

[3] = tested on: bronchospasms elicited by histamine; assay: Bronchodilator activity against histamine-induced bronchospasm (Konzett procedure); conditions: guinea pig; histamine spasmogen; three logarithmic cumulative intravenous doses
Description: as §1, §2

Compound | ED50 ACH [1] [Mg/kg × 10^-6] | ED50 5HT [2] [Mg/kg × 10^-6] | ED50 HIST. [3] [Mg/kg × 10^-6]
CCCCCC(C)(O)/C=C/C1C(O)CC(=O)C1CCCCCCC(=O)C(=O)OCC (stereo not drawn) [d1-1,9-dioxo-1-carbethoxy-11α,15-dihydroxy-15-methyl-13-trans-prostene] | > 3.2 | 4220 | 6050
CCCCC(C)(O)C/C=C/C1C(O)CC(=O)C1/C=C\CCCCC(=O)C(=O)OCC (stereo not drawn) [d1-1,9-dioxo-1-carbethoxy-11α,16-dihydroxy-16-methyl-6-cis-13-trans-prostadiene] | 5920 | 9510 | 9310
